Experimental data taken from paper PMC12540922, “Selective Antimicrobial and Cytotoxic Effects of Hop Compounds to Combat Poultry Antimicrobial Resistance” (MicrobiologyOpen, 2025).
In brackets after ≈: the same amount, converted by molar mass. Entries after “also recorded” stand apart in the source; their conditions may differ. Counter-ions that a name gives are not always drawn. Each block holds one compound with its values, some of them ahead of it.

What was measured:
M. luteus = tested on: M. luteus; parameters: method as in Seniya et al. [2012]; settings: against M. luteus; ref Seniya et al. [2012]; cited from earlier work
[1] = tested on: A-2780 ovarian cancer cell line; parameters: method as in Miranda et al. [1999]; settings: ref Miranda et al. [1999], cited from earlier work
[2] = tested on: MCF-7 breast cancer cell line; parameters: method as in Miranda et al. [1999]; settings: ref Miranda et al. [1999], cited from earlier work
[3] = Solubility of hop compounds in aqueous media (HPLC of supernatant); format: physicochemical; settings: 10% (v/v) ethanol; for Solubility in aqueous medium (in words): DMEM with/without 10% FBS, NB, TSB, theoretical 1 mg mL^−1; for solubility: culture media DMEM, NB and TSB, aqueous with cosolvent or surfactant or cyclodextrin, kinetic from dmso stock, in the media selected (DMEM, NB, TSB), read-out: Solubility limit
Protocol: High‐performance liquid chromatography (HPLC) measurements were performed using an NUCLEODUR C18 Gravity‐SB (3 µm, 250 × 2 mm) column equipped with a precolumn (Machery Nagel, Düren, Germany) in a Shimadzu HPLC system (Kyoto, Japan). The flow rate was set to 0.6 mL min^−1 at 40°C using 80% methanol/20% phosphoric acid (0.5% [v/v] in H2O) as mobile phase. Media samples were 10‐fold diluted in the mobile phase, incubated for 10 min at 40°C and centrifuged at 10,000g for 10 min. 10 μL of filtered (polytetrafluoroethylene, 0.2 µm) samples was injected for analysis. Identification and quantification of isoxanthohumol, xanthohumol, co‐/n‐/adhumulone, co‐/n‐/adlupulone, and co‐/n‐/adisohumulone by a UV‐Detector (314 nm for 0–24 min, and 270 nm for 24.01–45 min) were performed by corresponding standard curves. The preparation of hop compound solutions was carried out analogously for all three media NB, TSB, and DMEM for use in bacterial and avian cell culture. Hop compounds were provided by Hopsteiner (Mainburg, Germany) in the following purities: isoxanthohumol (81.0%), xanthohumol (90.0%), humulone (88.5%), lupulone (74.3%), and isohumulone (91.0%). The hop compounds were dissolved in ethanol to 10 mg mL^−1. From this stock solution, 1:10 dilutions were prepared in the respective medium, resulting in precipitation due to their hydrophobic character. After centrifugation (10,000g, 10 min), the clear supernatant was transferred to a new tube and used for further experiments. […] This is why the actual concentration of the compounds in the aqueous medium was analyzed using HPLC and used for subsequent calculations. Due to the hydrophobic character of hop pure compounds, a complete dissolution in an aqueous medium cannot be assumed. […] To assess the influence of FBS on solubility, DMEM without serum was also tested. For humulone, lupulone, and isohumulone, the three derivatives (co‐/n‐/ad‐) are considered together in this figure and also in the following.

[4] = MTT based cell viability assay (cytotoxic activity); settings: chicken, UMNSAH/DF-1 chicken fibroblast cells, UMNSAH/DF-1, 48 h treatment, mean ± SD
Protocol: UMNSAH/DF‐1 cell line was purchased from Cytion (Eppelheim, Germany). The cells were maintained in Dulbecco's Modified Eagle Medium (DMEM, Sigma‐Aldrich, St. Louis, USA) containing 10% heat‐inactivated fetal bovine serum (FBS, Sigma‐Aldrich, St. Louis, USA) and cultured at 37°C and 5% CO2 in a humidified atmosphere. Cell lines were serially passaged after being detached with Accutase solution (Sigma‐Aldrich, St. Louis, USA).
The hop compounds were investigated for their cytotoxic effect on the chicken cell line UMNSAH/DF‐1, using the 3‐(4,5‐dimehtylthiazol‐2‐yl)‐2,5‐diphenyltetrazolium bromide (MTT) based cell viability assay. Cells were seeded in 96‐well microtiter plates (Sarstedt, Nümbrecht, Germany) with a cell density of 0.05 × 10^6 cells per mL and 100 µL per well and incubated for 24 h (37°C, 5% CO2). After that the medium was discarded and a dilution series of hop compounds in DMEM was added to the wells (100 µL), ranging from theoretical concentrations of 200 µg mL^−1 to 20 ng mL^−1. For vitality control, 20% dimethyl sulfoxide (DMSO) (TH Geyer, Renningen, Germany) was added, and for growth control, culture medium was added. The cytotoxic measurements were also performed with gentamicin sulfate as a control. Treated cells were further incubated for 48 h (37°C, 5% CO2). […] Means and SDs were calculated from two biological duplicates, each consisting of three technical replicates.

[5] = tested on: Micrococcus luteus (DSM 1605); experiment: Broth dilution assay, antibacterial activity; format: cell-based; settings: for MIC50: Micrococcus luteus, DSM1605, M. luteus, concentration inhibiting 50% of growth rate, NB medium, 37°C, 24 h, mean ± SD
Protocol: Micrococcus luteus (DSM 1605) was obtained from DSMZ (German Collection of Microorganisms and Cell Cultures GmbH). It was cultured on nutrient agar or in nutrient broth (NB, DSMZ #1) containing 5 g L^−1 peptone from casein (Carl Roth, Karlsruhe, Germany) and 3 g L^−1 meat extract (Carl Roth, Karlsruhe, Germany) under aerobic conditions at 37°C.
(§1) Antibacterial activity of hop compounds against Gram‐positive M. luteus and B. subtilis was analyzed using Broth Dilution Assay. Twofold dilutions of hop compounds were prepared in NB or TSB medium, ranging from theoretical concentrations of 500 to 0.5 µg mL^−1 and transferred to 48‐well microtiter plates (Sarstedt, Nuembrecht, Germany). Gentamicin sulfate was used as a positive control. The optical density (OD) of a preculture prepared on the previous day was measured at 600 nm in a spectrophotometer (Implen, Muenchen, Germany). The inoculum was then diluted with NB or TSB medium to the desired OD600 nm of 0.1 and transferred to all wells (150 µL) except the sterile control, which consists only of medium. The ODs of the cultures were measured every hour at 750 nm using a plate reader (Tecan, Maennedorf, Switzerland) for 24 h. In the meantime, the plates were incubated at 37°C or 28°C without shaking. The chosen wavelength of 750 nm resulted from previous experiments with hop extracts to avoid an overlap of the absorption spectrum with chlorophyll (Guidi et al. [2017]). The growth rates were obtained from the exponential range of the generated growth curves. All values were normalized to the growth control (without hop compounds). MIC50 (minimum concentration of a substance that inhibits the growth of 50% of the bacteria tested) values were calculated by nonlinear regression using GraphPad Prism model “log(inhibitor) versus response,” where the basal response was subtracted and the bottom was set to a constant value (0). Means and standard deviations (SDs) were calculated from two biological duplicates, each consisting of three technical replicates.

[6] = tested on: Bacillus subtilis (DSM 23778); experiment: Broth dilution assay, antibacterial activity; format: cell-based; settings: for MIC50: Bacillus subtilis, DSM23778, B. subtilis, concentration inhibiting 50% of growth rate, TSB medium, 28°C, 24 h, mean ± SD; for Selectivity index (SI), quotient of IC50 and MIC50: IC50 UMNSAH/DF-1 / MIC50 B. subtilis
Protocol: Bacillus subtilis (DSM 23778) was obtained from DSMZ (German Collection of Microorganisms and Cell Cultures GmbH). It was cultured on tryptic soy broth (TSB, DSMZ #545) agar plates or in TSB containing 17 g L^−1 peptone from casein, 3 g L^−1 peptone from soy, 2.5 g L^−1 D‐(+)‐glucose, 5 g L^−1 NaCl, and 2.5 g L^−1 K2HPO4 (Carl Roth, Karlsruhe, Germany) under aerobic conditions at 28°C.
as §1

[7] = tested on: normal human fibroblasts (BJ cells); parameters: method as in Klimek et al. ([2021]); settings: ref Klimek et al. ([2021]); cited from earlier work
[8] = tested on: normal murine hepatocytes (AML 12 cell line); parameters: method as in Ho et al. [2008]; settings: ref Ho et al. [2008]; cited from earlier work
[9] = tested on: human prostate (PC3) and colon (HT29) cancer cell lines; parameters: method as in Farag and Wessjohann [2013]; settings: ref Farag and Wessjohann [2013]; cited from earlier work
[10] = read-out: IC50 (antiproliferative effect)

Compound: CC1(C)S[C@@H]2[C@H](NC(=O)[C@H](N)c3ccccc3)C(=O)N2[C@H]1C(=O)O [ampicillin]
MIC90 (M. luteus): 2500 µg/mL (≈ 7150 µM)

Compound: COc1cc(O)c(CC=C(C)C)c2c1C(=O)CC(c1ccc(O)cc1)O2 (stereo not drawn) [isoxanthohumol]
Times less effective than xanthohumol [1]: 35 times
Effect compared with xanthohumol (in words) [2]: comparable effect
Solubility in aqueous medium (in words) [3]: minimal; also recorded: moderately dissolved; also recorded: limited solubility

MIC50 [5]: 0.26 ± 0.08 µg/mL
MIC50 [6]: 0.73 ± 0.2 µg/mL
Compound: CNC(C)C1CCC(N)C(OC2C(N)CC(N)C(OC3OCC(C)(O)C(NC)C3O)C2O)O1 (stereo not drawn) [gentamicin sulfate, reference compound]
IC50 at 48 h [4]: 1440 ± 390 µg/mL

MIC50 [5]: 0.95 ± 0.04 µg/mL (≈ 2.68 µM)
Solubility in aqueous medium (in words) ([3]; listed as Xanthohumol): limited solubility
Compound: COc1cc(O)c(CC=C(C)C)c(O)c1C(=O)/C=C/c1ccc(O)cc1 [xanthohumol]
IC50 [1, 10]: 520 nM
Selectivity index (SI), quotient of IC50 and MIC50 ([5]; IC50 UMNSAH/DF-1 / MIC50 M. luteus): 5.5 ± 0.36
IC50 [2, 10]: 13.3 µM
IC50 [7]: 26.56 µg/mL (≈ 74.9 µM)
Solubility in aqueous medium (in words) [3]: minimal; also recorded: only a small proportion of xanthohumol could be recovered
IC50 [8]: 211 µM
Selectivity index (SI), quotient of IC50 and MIC50 [6]: around 6

Compound: [H]/N=C(/N)N[C@H]1[C@H](O)[C@@H](O)[C@H](O[C@@H]2O[C@@H](C)[C@](O)(C=O)[C@H]2O[C@@H]2O[C@@H](CO)[C@H](O)[C@@H](O)[C@@H]2NC)[C@@H](N/C(N)=N\[H])[C@@H]1O [streptomycin]
MIC90 (M. luteus): 500 µg/mL (≈ 860 µM)

Compound: CO/N=C(\C(=O)N[C@@H]1C(=O)N2C(C(=O)O)=C(CSc3nc(=O)c(=O)[nH]n3C)CS[C@H]12)c1csc(N)n1 [ceftriaxone]
MIC90 (M. luteus): 500 µg/mL (≈ 902 µM)

Solubility in aqueous medium (in words) [3]: highest
solubility [3]: ~1000 µg/mL (≈ 2760 µM)
Compound: CC(C)=CCC1C(=O)C(C(=O)CC(C)C)=C(O)C(O)(CC=C(C)C)C1=O (stereo not drawn) [humulone]
IC50 [9]: 13.2 to 15.5 µg/mL
Selectivity index (SI), quotient of IC50 and MIC50 [6]: around 6

MIC50 [5]: 1.5 ± 0.48 µg/mL (≈ 3.62 µM)
solubility [3]: ~1000 µg/mL (≈ 2410 µM)
MIC50 [6]: 0.1 ± 0.0029 µg/mL (≈ 0.241 µM)
Compound: CC(C)=CCC1=C(O)C(C(=O)CC(C)C)=C(O)C(CC=C(C)C)(CC=C(C)C)C1=O [lupulone]
IC50 at 48 h [4]: 1.5 ± 0.034 µg/mL (≈ 3.62 µM)
IC50 [9]: 2.4 to 8.1 µg/mL
